Results as given in doi:10.1101/2024.01.03.574093v2 (biorxiv, 2024).
Like-named read-outs stand apart in the source and are kept apart here. *1 amine or outer side, *2 acyl side, *3 side chain or, on linkers, in order; H or OH if unused. Where a SMILES comes first, the peptide text is derived from it. [ ]: non-standard residue; d: D form. The star is where a group is joined. X1 = Cc1nc(N[*:1])sc1-c1cc(C(=O)[*:2])n[nH]1; Bz = O=C(c1ccccc1)*

Key:
Assay in all cases: cell-based
[1] = biological target: T1, JHR (GCE:TAI) (Drosophila melanogaster, UniProt Q9VXW7); details: Drosophila Kc167, read-out: JHR Efficacy [%]
[2] = biological target: T2, human AHR (Homo sapiens, UniProt P35869); design: species or system HepG2 (AZ-AHR); details: HepG2, read-out: AHR Efficacy [%], AGO
[3] = biological target: T1, JHR (GCE:TAI); details: Drosophila Kc167, read-out: JHR Efficacy [%]; remark: listed apart in the source
[4] = biological target: T2, human AHR; design: species or system HepG2 (AZ-AHR); details: HepG2, read-out: AHR Efficacy [%]

T2 sequence (P35869 11-848): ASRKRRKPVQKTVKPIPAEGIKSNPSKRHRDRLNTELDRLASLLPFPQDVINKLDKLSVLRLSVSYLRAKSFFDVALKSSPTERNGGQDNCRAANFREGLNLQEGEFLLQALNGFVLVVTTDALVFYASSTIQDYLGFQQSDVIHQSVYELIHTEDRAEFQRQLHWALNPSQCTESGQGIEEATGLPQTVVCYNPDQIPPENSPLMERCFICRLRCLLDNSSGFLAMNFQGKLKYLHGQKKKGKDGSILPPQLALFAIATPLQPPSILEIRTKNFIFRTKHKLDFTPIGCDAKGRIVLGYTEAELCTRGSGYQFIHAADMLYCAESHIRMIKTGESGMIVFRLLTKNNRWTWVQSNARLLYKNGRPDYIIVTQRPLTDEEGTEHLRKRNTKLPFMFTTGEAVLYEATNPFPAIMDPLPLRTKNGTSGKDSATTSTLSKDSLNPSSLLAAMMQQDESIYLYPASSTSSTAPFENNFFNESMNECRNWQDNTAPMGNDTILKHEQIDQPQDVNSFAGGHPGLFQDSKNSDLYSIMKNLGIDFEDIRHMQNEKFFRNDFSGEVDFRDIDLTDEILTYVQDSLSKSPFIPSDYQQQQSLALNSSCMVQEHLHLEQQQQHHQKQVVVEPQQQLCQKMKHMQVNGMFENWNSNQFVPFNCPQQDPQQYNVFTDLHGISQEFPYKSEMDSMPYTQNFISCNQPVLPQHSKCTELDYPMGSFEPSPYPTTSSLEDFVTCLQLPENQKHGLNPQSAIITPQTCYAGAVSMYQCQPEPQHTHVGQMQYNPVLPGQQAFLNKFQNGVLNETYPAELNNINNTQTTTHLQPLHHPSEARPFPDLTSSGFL
T2 sequence (P27540 2-789 partner): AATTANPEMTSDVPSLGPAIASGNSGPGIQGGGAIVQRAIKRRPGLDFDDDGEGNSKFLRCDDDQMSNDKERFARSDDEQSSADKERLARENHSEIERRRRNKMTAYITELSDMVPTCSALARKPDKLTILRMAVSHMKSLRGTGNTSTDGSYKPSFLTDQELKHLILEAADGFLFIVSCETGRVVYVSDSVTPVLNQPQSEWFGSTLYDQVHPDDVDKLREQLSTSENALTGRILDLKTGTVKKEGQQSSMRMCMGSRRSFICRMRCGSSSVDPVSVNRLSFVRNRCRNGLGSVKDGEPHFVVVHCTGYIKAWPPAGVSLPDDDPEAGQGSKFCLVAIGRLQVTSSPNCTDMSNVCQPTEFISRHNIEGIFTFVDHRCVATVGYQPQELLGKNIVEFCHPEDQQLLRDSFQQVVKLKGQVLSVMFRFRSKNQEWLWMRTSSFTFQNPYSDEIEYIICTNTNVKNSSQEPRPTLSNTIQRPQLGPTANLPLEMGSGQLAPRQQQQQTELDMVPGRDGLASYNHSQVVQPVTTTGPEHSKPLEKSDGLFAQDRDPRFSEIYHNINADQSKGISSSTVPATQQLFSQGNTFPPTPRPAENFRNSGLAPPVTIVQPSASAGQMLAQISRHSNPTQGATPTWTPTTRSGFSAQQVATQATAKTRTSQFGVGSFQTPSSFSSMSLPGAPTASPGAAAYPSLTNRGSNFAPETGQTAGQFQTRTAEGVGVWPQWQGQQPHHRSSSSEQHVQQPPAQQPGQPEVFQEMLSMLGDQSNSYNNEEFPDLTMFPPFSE
T1 sequence (Q9VXW7 1-959): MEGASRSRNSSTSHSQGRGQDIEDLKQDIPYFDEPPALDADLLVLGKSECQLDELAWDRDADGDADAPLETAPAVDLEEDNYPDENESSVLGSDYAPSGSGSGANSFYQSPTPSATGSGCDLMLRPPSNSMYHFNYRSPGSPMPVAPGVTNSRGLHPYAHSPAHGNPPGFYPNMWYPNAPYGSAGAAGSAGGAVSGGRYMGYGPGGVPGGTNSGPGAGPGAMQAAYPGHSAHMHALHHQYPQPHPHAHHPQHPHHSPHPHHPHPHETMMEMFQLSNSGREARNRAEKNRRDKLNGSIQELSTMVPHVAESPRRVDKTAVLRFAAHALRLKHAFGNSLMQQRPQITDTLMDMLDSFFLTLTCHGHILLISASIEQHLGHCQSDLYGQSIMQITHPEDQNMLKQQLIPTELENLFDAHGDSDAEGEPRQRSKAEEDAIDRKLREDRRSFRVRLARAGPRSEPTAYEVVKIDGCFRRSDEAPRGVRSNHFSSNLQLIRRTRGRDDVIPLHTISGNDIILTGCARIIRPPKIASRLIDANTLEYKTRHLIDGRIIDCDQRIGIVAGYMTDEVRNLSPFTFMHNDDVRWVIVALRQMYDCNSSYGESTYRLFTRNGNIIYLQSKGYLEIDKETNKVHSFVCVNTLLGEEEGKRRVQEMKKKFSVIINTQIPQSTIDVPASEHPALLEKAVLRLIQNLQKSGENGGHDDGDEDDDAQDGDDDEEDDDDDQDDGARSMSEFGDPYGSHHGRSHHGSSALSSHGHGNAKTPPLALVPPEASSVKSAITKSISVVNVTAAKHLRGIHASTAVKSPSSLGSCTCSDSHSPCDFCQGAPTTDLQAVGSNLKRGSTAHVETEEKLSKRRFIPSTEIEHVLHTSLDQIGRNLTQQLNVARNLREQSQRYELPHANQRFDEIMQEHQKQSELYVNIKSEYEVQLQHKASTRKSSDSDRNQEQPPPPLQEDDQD
T1 sequence (Q9VLD9 1-2026 partner): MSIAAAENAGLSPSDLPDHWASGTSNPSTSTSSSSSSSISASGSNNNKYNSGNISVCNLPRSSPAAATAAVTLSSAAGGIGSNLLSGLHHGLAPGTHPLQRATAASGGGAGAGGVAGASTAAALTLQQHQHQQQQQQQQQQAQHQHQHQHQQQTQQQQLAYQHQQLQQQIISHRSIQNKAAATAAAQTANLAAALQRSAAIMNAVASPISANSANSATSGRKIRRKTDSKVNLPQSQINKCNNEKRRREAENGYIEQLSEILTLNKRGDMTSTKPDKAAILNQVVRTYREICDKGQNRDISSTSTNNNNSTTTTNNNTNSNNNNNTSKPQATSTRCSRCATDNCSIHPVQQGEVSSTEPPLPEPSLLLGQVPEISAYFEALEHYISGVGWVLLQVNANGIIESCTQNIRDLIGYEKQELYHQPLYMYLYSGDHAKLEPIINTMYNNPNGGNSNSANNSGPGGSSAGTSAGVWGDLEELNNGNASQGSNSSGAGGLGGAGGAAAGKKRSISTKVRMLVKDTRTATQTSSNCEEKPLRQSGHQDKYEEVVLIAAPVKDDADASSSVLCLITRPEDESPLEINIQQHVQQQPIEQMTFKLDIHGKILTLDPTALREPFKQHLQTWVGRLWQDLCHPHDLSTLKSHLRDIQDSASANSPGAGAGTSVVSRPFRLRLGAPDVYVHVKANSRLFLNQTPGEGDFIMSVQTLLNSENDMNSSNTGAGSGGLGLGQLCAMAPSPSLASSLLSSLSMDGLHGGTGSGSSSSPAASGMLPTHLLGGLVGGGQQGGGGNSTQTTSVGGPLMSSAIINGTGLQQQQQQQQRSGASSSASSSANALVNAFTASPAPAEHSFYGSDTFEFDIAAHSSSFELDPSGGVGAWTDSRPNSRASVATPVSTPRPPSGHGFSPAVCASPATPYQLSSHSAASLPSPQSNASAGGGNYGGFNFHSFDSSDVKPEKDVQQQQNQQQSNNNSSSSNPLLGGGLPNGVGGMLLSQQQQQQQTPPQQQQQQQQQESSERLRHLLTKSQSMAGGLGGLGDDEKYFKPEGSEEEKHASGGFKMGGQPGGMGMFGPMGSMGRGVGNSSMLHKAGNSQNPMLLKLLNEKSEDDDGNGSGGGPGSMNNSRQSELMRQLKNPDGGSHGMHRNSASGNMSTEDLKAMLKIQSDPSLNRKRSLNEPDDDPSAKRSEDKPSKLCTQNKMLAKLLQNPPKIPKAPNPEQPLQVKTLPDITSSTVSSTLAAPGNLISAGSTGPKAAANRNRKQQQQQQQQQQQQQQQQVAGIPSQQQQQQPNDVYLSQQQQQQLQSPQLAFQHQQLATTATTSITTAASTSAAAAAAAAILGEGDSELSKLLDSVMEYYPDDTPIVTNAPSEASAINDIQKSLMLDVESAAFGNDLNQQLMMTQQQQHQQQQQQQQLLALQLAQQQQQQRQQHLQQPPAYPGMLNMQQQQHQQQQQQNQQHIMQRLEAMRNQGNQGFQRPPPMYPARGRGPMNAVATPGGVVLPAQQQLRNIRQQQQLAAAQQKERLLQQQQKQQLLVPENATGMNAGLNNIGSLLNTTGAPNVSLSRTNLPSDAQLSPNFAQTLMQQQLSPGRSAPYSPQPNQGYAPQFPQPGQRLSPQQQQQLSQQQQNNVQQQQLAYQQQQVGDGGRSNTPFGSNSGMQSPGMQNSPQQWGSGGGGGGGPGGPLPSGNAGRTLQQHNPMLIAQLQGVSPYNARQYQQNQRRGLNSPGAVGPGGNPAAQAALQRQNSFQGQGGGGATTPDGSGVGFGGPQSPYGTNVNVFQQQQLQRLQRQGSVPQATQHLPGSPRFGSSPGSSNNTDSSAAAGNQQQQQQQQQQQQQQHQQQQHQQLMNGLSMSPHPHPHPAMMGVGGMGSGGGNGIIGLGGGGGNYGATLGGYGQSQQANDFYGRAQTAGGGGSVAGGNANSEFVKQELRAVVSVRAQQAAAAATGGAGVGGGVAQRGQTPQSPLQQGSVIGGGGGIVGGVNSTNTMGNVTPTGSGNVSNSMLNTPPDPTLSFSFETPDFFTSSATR

SMILES | Emax [1] [%] | Emax [2] [%] | Emax [3] [%] | Emax [4] [%]
Cc1nc(-c2ccsc2)sc1C(=O)Nc1cnn(C)c1 [cmpd 1.1] | 183 | 19 |  | 
O=C(CCSc1nnc2ccccn12)NC(=O)NCc1ccccc1 [cmpd 1.2] |  |  | 83 | 
CC(C)c1c(C(=O)NCC2CCCO2)nnn1-c1ccc(Br)cc1 (stereo not shown) [cmpd 1.3] | 254 |  |  | 
CN(C(=O)CN1CCOC(c2nccs2)C1)c1nccs1 (stereo not shown) [cmpd 1.4] | 266 |  |  | 
CC(COc1ccc(Oc2ccccc2)cc1)Oc1ccccn1 (stereo not shown) [pyriproxyfen] |  |  | 62 | 

Further lines, results first:

Emax [1] [%] | Emax [2] [%] | Emax [3] [%] | Emax [4] [%] | SMILES
85 |  |  |  | Cc1c(C(=O)Nc2ccc3ncccc3c2)sc2ccccc12 [2.7, cmpd 2.7]
143 | 52 |  |  | Cc1nc(NC(=O)c2ccccc2)sc1-c1cc(C(=O)NCC(=O)N[C@H](CCCN=C(N)N)C(=O)NCC(=O)N[C@H](CC(=O)O)C(=O)N[C@H](CC(=O)O)C(=O)N[C@H](CC(=O)O)C(N)=O)n[nH]1 [cmpd 2.1] (Bz-[X1]G[dR]G[dD][dD][dD]-NH2)
 |  | 110 | 103 | CC(Sc1nccn1C)C(=O)Nc1nc(-c2ccccc2)cs1 (stereo not shown) [cmpd 2.2]
 |  | 88 |  | O=C(Nc1ccc(-c2nccs2)cc1)c1ccccc1C(F)(F)F [cmpd 2.3]
 |  | 76 | 14 | O=C(NCCCn1cccn1)c1ccc(C2CCCCC2)cc1 [cmpd 2.6]
 |  | 126 | 87 | Cc1c(C(=O)NCCc2cccnc2)oc2ccc(F)cc12 [cmpd 2.8]
 |  | 70 | 19 | OC(COc1ccc2cc(Br)ccc2c1)Cn1cccn1 (stereo not shown) [cmpd 2.9]
 |  | 128 | 30 | Cc1csc(CCNC(=O)c2cnc(-c3ccccc3)nc2)n1 [cmpd 2.10]
 |  | 109 | 45 | CC(NC(=O)CSCc1ccccc1)c1ccc(-n2ccnc2)cc1 (stereo not shown) [cmpd 2.12]
